Source: PMC5318275 (Chemical research in toxicology, 2017)
Like-named read-outs stand apart in the source and are kept apart here.

Tests used:
[1] = target: hMT1; details: read-out: Ki hMT1; competition for 2-[125I]-iodomelatonin (300 pM); cited from earlier work
[2] = target: hMT2; details: read-out: Ki hMT2; competition for 2-[125I]-iodomelatonin (300 pM); cited from earlier work
[3] = target: T1, hMT1 melatonin receptor (Homo sapiens, UniProt P48039); experiment: biochemical; type: binding
[4] = target: T2, hMT2 melatonin receptor (Homo sapiens, UniProt P49286); experiment: biochemical; type: binding; details: for fold higher affinity for hMT2 than for hMT1: competition with 2-[125I]-iodomelatonin binding; for ratio MT1/MT2 (KiMT1/KiMT2): fold difference in affinity between hMT1 and hMT2
T2 sequence (P49286 1-362): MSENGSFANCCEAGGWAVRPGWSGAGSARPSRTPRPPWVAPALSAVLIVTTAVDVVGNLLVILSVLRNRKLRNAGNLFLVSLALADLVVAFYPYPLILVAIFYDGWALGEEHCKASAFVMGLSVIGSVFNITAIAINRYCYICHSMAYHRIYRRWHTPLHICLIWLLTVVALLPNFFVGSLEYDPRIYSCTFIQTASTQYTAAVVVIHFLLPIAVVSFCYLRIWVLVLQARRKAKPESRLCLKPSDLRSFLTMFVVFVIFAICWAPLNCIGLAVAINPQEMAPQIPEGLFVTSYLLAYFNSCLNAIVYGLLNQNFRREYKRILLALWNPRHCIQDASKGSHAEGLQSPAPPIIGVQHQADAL

[5] = target: T1, hMT1 melatonin receptor; experiment: biochemical; type: binding; details: for ratio KiGTP/KiControl, human MT1: 100 μM GTP vs control; for ratio KiGTP/KiControl, human MT1 / Ki: mean ± SEM; for apparent intrinsic efficacy at hMT1 from GTP shift: classified by KiGTP/KiControl: agonists >1, antagonists =1, inverse agonists <1; for Ki: human MT1 Ki value, 25 °C, 1 h
[6] = target: T2, hMT2 melatonin receptor; experiment: biochemical; type: binding; details: for ratio KiGTP/KiControl, human MT2: 100 μM GTP vs control; for ratio KiGTP/KiControl, human MT2 / Ki: mean ± SEM; for apparent intrinsic efficacy at hMT2 from GTP shift: classified by KiGTP/KiControl: agonists >1, antagonists =1, inverse agonists <1; for Ki: human MT2 Ki value, 25 °C, 1 h
[7] = test system: serotonin levels; details: single oral dose 60 mg/kg; cited from earlier work

T1 sequence (P48039 whole entry): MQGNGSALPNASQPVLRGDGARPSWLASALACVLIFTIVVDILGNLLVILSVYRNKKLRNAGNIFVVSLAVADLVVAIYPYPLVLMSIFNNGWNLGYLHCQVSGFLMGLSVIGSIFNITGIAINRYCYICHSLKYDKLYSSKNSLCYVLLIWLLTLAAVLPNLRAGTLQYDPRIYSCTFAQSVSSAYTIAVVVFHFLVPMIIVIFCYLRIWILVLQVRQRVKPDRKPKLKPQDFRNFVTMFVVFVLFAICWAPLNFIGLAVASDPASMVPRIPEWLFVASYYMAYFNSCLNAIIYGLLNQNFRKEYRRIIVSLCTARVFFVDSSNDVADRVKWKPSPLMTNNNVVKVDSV

SMILES | Ki [1] [nM] | Ki [2] [nM] | Ki ([3]; affinity at hMT1, text of discussion, equals the Table 2 control value) [nM] | Ki [4] [nM] | fold higher affinity for hMT2 than for hMT1 [4] [fold] | ratio MT1/MT2 (KiMT1/KiMT2) [4] | ratio KiGTP/KiControl, human MT1 [5] | apparent intrinsic efficacy at hMT1 from GTP shift [5] | Ki ([5]; GTP, presence of 100 μM GTP) [nM] | Ki ([5]; control, absence of GTP) [nM] | ratio KiGTP/KiControl, human MT2 [6] | apparent intrinsic efficacy at hMT2 from GTP shift [6] | Ki ([6]; GTP, presence of 100 μM GTP) [nM] | Ki ([6]; control, absence of GTP) [nM] | levels of serotonin [7] | Ki [3] [nM]
CCC(=O)NC1Cc2ccccc2C(c2ccccc2)C1 (centres unmarked) [4P-PDOT] | 658 | 0.41 | – | – | – | – | – | – | – | – | – | – | – | – | – | –
CNC(=O)Oc1cccc2ccccc12 [carbaryl, 1-naphthyl methylcarbamate] | – | – | 2330 | 70 ± 10 | 33 | 32.4 | 0.65 ± 0.16 | antagonist/inverse agonist | 1210 ± 110 | 2330 ± 530 | 4.82 ± 0.82 | agonist | 310 ± 30 | 70 ± 5 | increased | –
CNC(=O)Oc1cccc2c1OC(C)(C)C2 [carbofuran, 2,3-dihydro-2,2-dimethyl-7-benzofuranyl methylcarbamate] | – | – | – | 1680 ± 240 | 35 | 34.8 | 0.59 ± 0.24 | antagonist/inverse agonist | 29900 ± 8600 | 63500 ± 12500 | 10.8 ± 4.2 | agonist efficacy | 12100 ± 2630 | 1670 ± 390 | – | 58500 ± 8250
CC(=O)NCCc1c(Cc2ccccc2)[nH]c2ccccc12 [luzindole] | 179 | 7.3 | – | – | – | – | – | – | – | – | – | – | – | – | – | –
